Assay results: patent US8927500B2, “Peptidomimetic macrocycles” (Aileron Therapeutics, Inc., priority 2012, dated 2015)

Experiments:
[1] = biological target: T1, MDMX (Homo sapiens, UniProt O15151); assay: Competitive fluorescence polarization assay for MDMX; assay type: binding; details: competitive FP assay; for IC50: read-out: IC50 (MDMX); for Ki: read-out: Ki (MDMX)
T1 sequence (O15151 1-125): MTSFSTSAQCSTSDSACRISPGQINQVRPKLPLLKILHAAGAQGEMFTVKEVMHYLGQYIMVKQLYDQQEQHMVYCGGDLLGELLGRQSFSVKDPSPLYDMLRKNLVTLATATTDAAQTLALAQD

[2] = biological target: MDM2 (Homo sapiens, UniProt Q00987); assay: Competitive fluorescence polarization assay for MDM2; assay type: binding; details: competitive FP assay, MDM2; for IC50: read-out: IC50 (MDM2); for Ki: read-out: Ki (MDM2)
Chain of MDM2 (Q00987 1-125): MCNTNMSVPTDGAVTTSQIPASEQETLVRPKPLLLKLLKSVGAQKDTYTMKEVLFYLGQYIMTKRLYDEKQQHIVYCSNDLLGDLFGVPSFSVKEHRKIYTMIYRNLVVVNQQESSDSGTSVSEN

SMILES	IC50 [1] [nM]	Ki [1] [nM]	IC50 [2] [nM]	Ki [2] [nM]
CC(=O)N[C@@H](CC(C)C)C(=O)N[C@H](C(=O)N[C@@H](Cc1ccccc1)C(=O)N[C@]1(C)CCCCCCC=CCCC[C@@](C)(C(=O)N[C@@H](CO)C(=O)N[C@@H](C)C(=O)N[C@@H](C)C(N)=O)NC(=O)[C@H](CC2CCC2)NC(=O)[C@H](CCC(N)=O)NC(=O)[C@H](CO)NC(=O)[C@H](Cc2c[nH]c3ccccc23)NC(=O)[C@H](Cc2ccc(O)cc2)NC(=O)[C@H](CCC(=O)O)NC1=O)[C@@H](C)O (single isomer, unassigned) [compound 293]	10 to 100	10 to 100	< 10	< 10
CCCC[C@H](NC(=O)[C@H](C)NC(=O)[C@H](C)NC(=O)[C@]1(C)CCCC=CCCCCCC[C@@](C)(NC(=O)[C@H](Cc2ccc(F)c(F)c2)NC(=O)[C@@H](NC(=O)[C@H](CC(C)C)NC(C)=O)[C@@H](C)O)C(=O)N[C@@H](C)C(=O)N[C@@H](Cc2ccc(O)cc2)C(=O)N[C@@H](Cc2c[nH]c3ccccc23)C(=O)N[C@@H](C)C(=O)N[C@@H](CCC(N)=O)C(=O)N[C@@H](CCC(C)C)C(=O)N1)C(=O)N[C@@H](C)C(N)=O (single isomer, unassigned) [compound 308]	100 to 1000	10 to 100	100 to 1000	10 to 100
CCCC[C@H](NC(=O)[C@H](C)NC(=O)[C@H](C)NC(=O)[C@]1(C)CCCC=CCCCCCC[C@@](C)(NC(=O)[C@H](Cc2ccccc2)NC(=O)[C@@H](NC(=O)[C@H](CC(C)C)NC(C)=O)[C@@H](C)O)C(=O)N[C@@H](C)C(=O)N[C@@H](Cc2ccc(C(=O)O)cc2)C(=O)N[C@@H](Cc2c[nH]c3ccccc23)C(=O)N[C@@H](C)C(=O)N[C@@H](CCC(N)=O)C(=O)N[C@@H](CCC(C)C)C(=O)N1)C(=O)N[C@@H](C)C(N)=O (single isomer, unassigned) [compound 310]	10 to 100	10 to 100	10 to 100	< 10
CCCC[C@H](NC(=O)[C@H](C)NC(=O)[C@H](C)NC(=O)[C@]1(C)CCCC=CCCCCCC[C@@](C)(NC(=O)[C@H](Cc2ccccc2)NC(=O)[C@@H](NC(=O)[C@H](CC(C)C)NC(C)=O)[C@@H](C)O)C(=O)N[C@@H](C)C(=O)N[C@@H](Cc2ccc(O)cc2)C(=O)N[C@@H](Cc2c[nH]c3ccccc23)C(=O)N[C@@H](CO)C(=O)N[C@@H](CCC(N)=O)C(=O)N[C@@H](CCC(C)C)C(=O)N1)C(=O)N[C@@H](C)C(N)=O (single isomer, unassigned) [compound 312]	100 to 1000	10 to 100	10 to 100	10 to 100
CCCC[C@H](NC(=O)[C@H](C)NC(=O)[C@H](CO)NC(=O)[C@]1(C)CCCC=CCCCCCC[C@@](C)(NC(=O)[C@H](Cc2ccccc2)NC(=O)[C@@H](NC(=O)[C@H](CC(C)C)NC(C)=O)[C@@H](C)O)C(=O)N[C@@H](CCC(=O)O)C(=O)N[C@@H](Cc2ccc(C(=O)O)cc2)C(=O)N[C@@H](Cc2c[nH]c3cc(Cl)ccc23)C(=O)N[C@@H](C)C(=O)N[C@@H](CCC(N)=O)C(=O)N[C@@H](CC2CCC2)C(=O)N1)C(=O)N[C@@H](C)C(N)=O (single isomer, unassigned) [compound 334]	10 to 100	< 10	< 10	< 10
CCCC[C@H](NC(=O)[C@H](C)NC(=O)[C@H](C)NC(=O)[C@]1(C)CCCC=CCCCCCC[C@@](C)(NC(=O)[C@H](Cc2ccccc2)NC(=O)[C@@H](NC(=O)[C@H](CC(C)C)NC(C)=O)[C@@H](C)O)C(=O)N[C@@H](C)C(=O)N[C@@H](Cc2ccc(O)cc2)C(=O)N(C)[C@@H](Cc2c[nH]c3ccccc23)C(=O)N[C@@H](C)C(=O)N[C@@H](CCC(N)=O)C(=O)N[C@@H](CC(C)C)C(=O)N1)C(=O)N[C@@H](C)C(N)=O (single isomer, unassigned) [compound 386]	> 1000	> 1000	100 to 1000	100 to 1000

Results, then the compound that gave them:

IC50 [1] [nM]	Ki [1] [nM]	IC50 [2] [nM]	Ki [2] [nM]	SMILES
100 to 1000	10 to 100	< 10	< 10	CC(=O)N[C@@H](CC(C)C)C(=O)N[C@H](C(=O)N[C@@H](Cc1ccccc1)C(=O)N[C@]1(C)CCCCCCC=CCCC[C@@](C)(C(=O)N[C@@H](C)C(=O)N[C@@H](C)C(=O)N[C@@H](CC(C)C)C(=O)N[C@H](C)C(N)=O)NC(=O)[C@H](CC(C)C)NC(=O)[C@H](CCC(N)=O)NC(=O)[C@H](C)NC(=O)[C@H](Cc2c[nH]c3ccccc23)NC(=O)[C@H](Cc2c[nH]cn2)NC(=O)[C@H](CCC(=O)O)NC1=O)[C@@H](C)O (single isomer, unassigned) [compound 227]
10 to 100	< 10	10 to 100	< 10	CC(=O)N[C@@H](CC(C)C)C(=O)N[C@H](C(=O)N[C@@H](Cc1ccccc1)C(=O)N[C@]1(C)CCCCCCC=CCCC[C@@](C)(C(=O)N[C@@H](CO)C(=O)N[C@@H](C)C(=O)N[C@@H](C)C(N)=O)NC(=O)[C@H](CC2CCC2)NC(=O)[C@H](CCC(N)=O)NC(=O)[C@H](C)NC(=O)[C@H](Cc2c[nH]c3ccccc23)NC(=O)[C@H](Cc2ccc(C(=O)O)cc2)NC(=O)[C@H](CCC(=O)O)NC1=O)[C@@H](C)O (single isomer, unassigned) [compound 291]
10 to 100	10 to 100	10 to 100	< 10	CC(=O)N[C@@H](C)C(=O)N[C@@H](CC(C)C)C(=O)N[C@H](C(=O)N[C@@H](Cc1ccccc1)C(=O)N[C@]1(C)CCCCCCC=CCCC[C@@](C)(C(=O)N[C@@H](CO)C(=O)N[C@@H](C)C(=O)N[C@@H](C)C(N)=O)NC(=O)[C@H](CC2CCC2)NC(=O)[C@H](CCC(N)=O)NC(=O)[C@H](C)NC(=O)[C@H](Cc2c[nH]c3ccccc23)NC(=O)[C@H](Cc2ccc(O)cc2)NC(=O)[C@H](CCC(=O)O)NC1=O)[C@@H](C)O (single isomer, unassigned) [compound 328]
> 1000	> 1000	100 to 1000	100 to 1000	CCCC[C@H](NC(=O)[C@H](C)NC(=O)[C@H](C)NC(=O)[C@]1(C)CCCC=CCCCCCC[C@@](C)(NC(=O)[C@H](Cc2ccccc2)NC(=O)[C@@H](NC(=O)[C@H](CC(C)C)NC(C)=O)[C@@H](C)O)C(=O)N[C@@H](C)C(=O)N(C)[C@@H](Cc2ccc(O)cc2)C(=O)N[C@@H](Cc2c[nH]c3ccccc23)C(=O)N[C@@H](C)C(=O)N[C@@H](CCC(N)=O)C(=O)N[C@@H](CC(C)C)C(=O)N1)C(=O)N[C@@H](C)C(N)=O (single isomer, unassigned) [compound 384]
10 to 100	10 to 100	10 to 100	< 10	CCCC[C@H](NC(=O)[C@H](C)NC(=O)[C@H](C)NC(=O)[C@]1(C)CCCC=CCCCCCC[C@@](C)(NC(=O)[C@H](Cc2ccccc2)NC(=O)[C@@H](NC(=O)[C@H](CC(C)C)NC(C)=O)[C@@H](C)O)C(=O)N[C@@H](C)C(=O)N[C@@H](Cc2ccc(O)cc2)C(=O)N[C@@H](Cc2c[nH]c3ccccc23)C(=O)NC(C)(C)C(=O)N[C@@H](CCC(N)=O)C(=O)N[C@@H](CC(C)C)C(=O)N1)C(=O)N[C@@H](C)C(N)=O (single isomer, unassigned) [compound 390]
